Experiments:
Format in all cases: cell-based
LnCAP cells [1] = assay: LNCaP cell proliferation assay in the presence of 1 nM R1881 (CellTiterGlo); details: 5% charcoal stripped serum, 7 days
Protocol: (§1) LNCaP-AR cells were treated with hormone for 18 hours as indicated and then, RNA was isolated and FKBP52 expression was assessed by qPCR. GAPDH was used to normalize expression. Error represents standard deviation (Panel A). LNCaP cell proliferation assay in the presence of indicated compounds at 3 μM and then, the assay was performed in 10% FBS, and only viable cells were counted at each indicated day (Panel B). […] LNCaP/AR-F876L cells were treated with indicated compounds for 24 hours in 5% charcoal stripped FBS, and then, mRNA was prepared and the relative PSA mRNA was determined by qPCR (Panel D).
For FIG. 33, panel C, the LNCaP cells were washed with PBS, seeded at 5,000 cells per well in a 96-well plate in 5% Charcoal Stripped Serum (Omega) in phenol-red free RPMI media (Invitrogen). […] Baseline CellTiterGlo (Promega) reading was taken immediately after addition of compounds and 7 days later. The data are plotted so that the Y axis reflects the degree of proliferation at Day 7, compared to Day 0.

[2] = tested on: PC3 human prostate cancer cell line; assay: Cell proliferation assay with AR-negative PC-3 prostate cancer cells (CellTiterGlo); details: 5% charcoal stripped FBS
Protocol: (§2) FIGS. 35A-35B are a series of graphs illustrating results of cell proliferation assay. Cell proliferation assay was performed with AR-negative PC-3 prostate cancer cells (FIG. 35A). Indicated compounds at shown doses were added to previously plated PC-3 cells in phenol-red free RPMI, supplemented with 5% charcoal stripped FBS. CellTiterGlo readings were taken at indicated days and the data are plotted as a % of proliferation from Day 0. Cell proliferation assay was performed with HEK293 cells (FIG. 35B), which were plated at 2,000 cells/well in a 6-well plate and dosed with indicated compounds at 3 μM.

HEK 293T = assay: Cell proliferation assay with HEK 293T cells; details: 3 μM
Protocol: as §2

androgen receptor (AR) = target: T1, androgen receptor (AR) (Homo sapiens, UniProt P10275, T878A); assay: SARD-mediated AR degradation, western blot in LNCaP cells
T1 construct: endogenous in cells; host or cells: LNCaP
T1 sequence (P10275 1-920 T878A): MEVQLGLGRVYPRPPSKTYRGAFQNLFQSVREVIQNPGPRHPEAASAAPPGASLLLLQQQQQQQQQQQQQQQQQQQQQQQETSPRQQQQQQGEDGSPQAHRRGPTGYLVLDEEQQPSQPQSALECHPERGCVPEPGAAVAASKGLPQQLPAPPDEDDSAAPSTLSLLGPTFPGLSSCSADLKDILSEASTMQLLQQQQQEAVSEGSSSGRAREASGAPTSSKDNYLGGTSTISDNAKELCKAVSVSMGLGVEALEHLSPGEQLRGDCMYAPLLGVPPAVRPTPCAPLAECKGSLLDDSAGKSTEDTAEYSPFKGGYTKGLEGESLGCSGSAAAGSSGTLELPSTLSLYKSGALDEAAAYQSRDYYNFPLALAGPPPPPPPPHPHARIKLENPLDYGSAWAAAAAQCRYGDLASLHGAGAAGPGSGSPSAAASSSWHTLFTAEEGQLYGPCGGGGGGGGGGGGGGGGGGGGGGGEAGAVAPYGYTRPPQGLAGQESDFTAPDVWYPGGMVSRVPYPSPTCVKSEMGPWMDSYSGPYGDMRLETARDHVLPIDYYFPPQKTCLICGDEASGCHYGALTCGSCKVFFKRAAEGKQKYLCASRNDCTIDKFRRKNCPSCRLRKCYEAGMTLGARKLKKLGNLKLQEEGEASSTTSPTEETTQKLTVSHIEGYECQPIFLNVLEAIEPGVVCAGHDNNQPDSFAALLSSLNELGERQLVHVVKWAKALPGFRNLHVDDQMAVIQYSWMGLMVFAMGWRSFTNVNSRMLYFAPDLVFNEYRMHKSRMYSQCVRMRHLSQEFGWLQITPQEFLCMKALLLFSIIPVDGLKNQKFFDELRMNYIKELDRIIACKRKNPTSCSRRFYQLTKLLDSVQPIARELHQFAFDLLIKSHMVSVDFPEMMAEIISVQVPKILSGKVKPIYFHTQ
Protocol: FIG. 15A illustrates representative western blots of SARD mediated AR degradation. FIG. 15B is a graph illustrating the percentage of remaining AR as a function of SARD compound concentration.
(§3) FIGS. 32A-32B show a series of representative western blots of SARD-mediated AR degradation according to the present description. LNCaP cells were treated with indicated compounds for 24 hours and SARD 279 and RU59063 were used at 2.5 μM and 25 μM, respectively (FIG. 32A).
(§4) LNCaP and PC3 cells were obtained from ATCC. LNCaP/AR-876L and LNCaP/AR cells were generated by infecting LNCaP cells with the 876L or WT, respectively, AR. All cells were grown at 37° C. in RPMI and supplemented with 10% FBS, 100 U/ml carbenicillin and 100 μg/ml streptomycin. AR (5153) and Hsp70 (4872) antibodies were obtained from Cell Signaling. β-actin antibody (AC-74) was purchased from Sigma. Geldanamycin was purchased from Invivogen. The indicated cells were washed twice with cold PBS, and the cells were lysed in lysis buffer (1×PBS, 1% NP-40, 1 mM EDTA, 40 mM HEPES) with protease inhibitors. The lysates were cleared by centrifugation at 10,000 g for 5 min. The total protein concentration was determined by Bradford assay, and 10 μg of protein was loaded onto an 8% Bis-Tris gel. The blots were processed by standard procedures with the indicated antibodies, and the band intensities were quantified by ImageJ (US National Institutes of Health).

[3] = tested on: AR target genes (FKBP52, PMPEA 1, NKX3.1) in LNCaP-AR cells; assay: AR-dependent gene expression by qPCR in LNCaP-AR cells; details: 18 hours; for AR agonist activity: expression of AR target genes: qPCR normalized to GAPDH
Protocol: as §1
FIGS. 34A-34B are a series of graphs illustrating relative pMPEA1 mRNA levels (FIG. 34A) or relative NKX3.1 mRNA levels (FIG. 34B) after treated with SARDS compounds according to the present description. LNCaP-AR cells were treated with hormone for 18 hours and subsequently, mRNA was isolated and FKBP52 expression was assessed by qPCR. GAPDH was used to normalize expression. Error represents standard deviation.
The effects of the SARDS in the present description on AR-dependent gene expression in AR overexpressing LNCaP-AR cells, a validated cellular model of CRPC were examined. LNCaP-AR cells were treated with hormone for 18 hours as indicated. RNA was isolated and FKBP52 expression was assessed by QPCR. GAPDH was used to normalize expression. Error represents standard deviation.

LnCAP cells [4] = assay: Proliferation of androgen-dependent LnCAP cells
Protocol: as §1
For FIG. 33, panel B, 2,000 cells in RPMI media, supplemented with 10% FBS, 100 U/ml carbenicillin and 100 μg/ml streptomycin, were plated into each well in a 6-well plate. Two days after plating, the cells were treated with indicated compounds. The number of cells in each well was counted with a hemocytometer using Trypan blue to distinguish viable cells.

HeLa cells = assay: General cell toxicity in AR-independent HELA cells; details: 1 μM, 48 h
Protocol: (§5) To access general cell toxicity, AR-independent HEK293 and HELA cells were treated with 1 μM SARD 279.

HEK293 cells = assay: General cell toxicity in AR-independent HEK293 cells; details: HEK293, 1 μM, 48 h
Protocol: as §5

Hsp70 = Hsp70 immunoblot in LNCaP cells treated with SARD 279 and geldanamycin; details: 24 hours
Protocol: as §3, §4

Row | Structure (SMILES) | Proliferation of PC3 cells [2] | Proliferation of HEK 293T cells (HEK 293T) | AR degradation (in words) (androgen receptor (AR)) | AR agonist activity: expression of AR target genes [3] | other results
1 | CNC(=O)c1ccc(N2C(=S)N(c3ccc(C#N)c(C(F)(F)F)c3)C(=O)C2(C)C)cc1F [MDV3100, reference compound] | unaffected | unaffected |  |  | Antiproliferative activity in the presence of 1 nM R1881 (LnCAP cells [1]): ineffective in the presence of higher androgen levels
2 | CC1(C)C(=O)N(c2ccc(C#N)c(C(F)(F)F)c2)C(=S)N1CCCCO [RU59063, 4-[3-(4-hydroxybutyl)-4,4-dimethyl-5-oxo-2-thioxoimidazolidin-1-yl]-2-(trifluoromethyl)benzonitrile, reference compound] |  |  | no degradation was detected | increasing expression of a number of AR target genes | 
3 | CC1(C)C(=O)N(c2ccc(C#N)c(C(F)(F)F)c2)C(=S)N1CCCC(=O)NCCOCCOCCOCCOC12CC3CC(CC(C3)C1)C2 [SARD 033, N-(2-(2-(2-(2-(Adamantan-1-yloxy)ethoxy)ethoxy)ethoxy)ethyl)-4-(3-(4-cyano-3-(trifluoromethyl)phenyl)-5,5-dimethyl-4-oxo-2-thioxoimidazolidin-1-yl)butanamide] | unaffected | unaffected |  | no such agonist activity | Cell growth / proliferation of LnCAP cells (LnCAP cells [4]; 1 μM, several days): significantly attenuated cell growth; Proliferation of LNCaP cells, viable cell count (LnCAP cells [4]; 3 μM, 10% FBS, hemocytometer with Trypan blue, over 9 days): suppressed proliferation with similar efficacy to MDV3100; Antagonism of gene expression induced by R1881 ([3]; qPCR): antagonized gene expression induced by the synthetic androgen R1881
4 | CC1(C)C(=O)N(c2ccc(C#N)c(C(F)(F)F)c2)C(=S)N1CCCC(=O)NCCOCCOC(=O)CC12CC3CC(CC(C3)C1)C2 [SARD 279, 2-(2-(4-(3-(4-Cyano-3-(trifluoromethyl)phenyl)-5,5-dimethyl-4-oxo-2-thioxoimidazolidin-1-yl)butanamido)ethoxy)ethyl 2-(adamantan-1-yl)acetate] |  |  |  |  | Cytotoxicity compared to vehicle (HeLa cells): did not display cytotoxic results; DC50 (androgen receptor (AR); read-out: DC50 (half maximum degradation concentration) of AR): 1000 nM; Cytotoxicity compared to vehicle (HEK293 cells): did not display cytotoxic results
5 | CCOCCOCCNC(=O)CCCN1C(=S)N(c2ccc(C#N)c(C(F)(F)F)c2)C(=O)C1(C)C [SARD 280, 4-(3-(4-Cyano-3-(trifluoromethyl)phenyl)-5,5-dimethyl-4-oxo-2-thioxoimidazolidin-1-yl)-N-(2-(2-ethoxyethoxy)ethyl)butanamide] |  |  | affected degradation only at higher concentrations and did not achieve complete AR degradation at the concentrations assayed |  | 
6 | COC1=C2C[C@@H](C)C[C@H](OC)[C@H](O)[C@@H](C)/C=C(\C)[C@H](OC(N)=O)[C@@H](OC)/C=C\C=C(/C)C(=O)NC(=CC1=O)C2=O [geldanamycin, (4E,6Z,8S,9S,10E,12S,13R,14S,16R)-13-hydroxy-8,14,19-trimethoxy-4,10,12,16-tetramethyl-3,20,22-trioxo-2-azabicyclo[16.3.1]docosa-1(21),4,6,10,18-pentaen-9-yl carbamate] |  |  |  |  | Hsp70 levels (immunoblot) (Hsp70): geldanamycin-dependent increase in Hsp70 levels
